Reference: patent US20260021167A1, “COMPOSITIONS AND METHODS FOR TREATING OR PREVENTING NEURODEGENERATIVE DISEASES” (Delaware State University, priority 2022, published 2026)

Key:
[1] = test system: N27 dopaminergic cell line; assay: In vitro cell death induced by MPP+ or PFF; type: cell-based, rat; details: MPP+ or PFF-mediated toxic conditions
[2] = test system: N27 cells; assay: Cytotoxicity (LDH) assay after PFF exposure; type: cell-based, rat; details: N27 cells, PFF treatment; compared to PFF only control
Experimental: Cytotoxicity Assay. The lactate dehydrogenase (LDH) is a cytosolic enzyme that is released into the media during cellular stress and increased levels of cytotoxicity. The cytotoxicity assay was measured using reagents from the Pierce LDH Cytotoxicity Assay Kit (88954, Thermo). For the assay, 50 μL of media from each well after PFF exposure, followed by SENP-1 treatment, was put into wells of a new 96-well plate. The LDH reagents were prepared according to the protocol provided, and 50 μL of the LDH reagent was mixed into each well. The total 100 μL of media containing LDH and its reagent were incubated at 37° C. for 30 min, followed by the application of a stop solution. The mixture was analyzed using a spectrophotometer (SpectraMax M5e, Molecular devices) at 490 nm with a reference wavelength of 680 nm.
In this study, numerous commercially available SENP-1 inhibitors were tested for the recovery effects from preformed fibrils of alpha-synuclein (PFF)-induced PD models in vitro. The screening process includes several SENP-1 inhibitors, including specific SENP-1 inhibitors (e.g., SUMO-2 Aldehyde, Momordin lc, streptonigrin, hinokiflavonem, and siRNAs of SENP-1) and nonspecific SENP-1 inhibitors (e.g., oleanolic acid, gallic acid), in N27 dopaminergic cells after the exposure of PFF for 24 hrs.

[3] = test system: PFF-injected old mice; assay: Grooming in PFF-injected mice; type: in vivo, mouse; details: 10 and/or 50 mg/kg oral, vs PFF only
Experimental: (§1) A mouse model of Parkinson's disease is C57BL/6 male or female mice (50% each) injected with 5 μg of mouse PFF at 12 months old, followed by a treatment below for 6-7 weeks: • 1) without PFF injection, followed by vehicle (control, n=7); • 2) PFF injection, followed by vehicle (PFF only: control, n=8); • 3) PFF injection, followed by daily 10 mg/kg Momordin gavage (n=7-8); • 4) PFF injection, followed by daily 50 mg/kg Momordin gavage (n=7-8).
Grooming. Individual pictures of each animal were taken over 3 days and analyzed for grooming capabilities. Additional data were collected over 6 weeks during the gavaging period for PFF-injected mice to monitor whether the mice in all groups performed grooming activities uniformly. The points were averaged at the end of the assessment after the mice were euthanized. The coat conditions of each animal were assessed to correlate motivation and activity levels for each animal. […] The grooming pictures were also analyzed by blinded raters and given a point out of 10, with 1 being a poor/dull coat and 10 being a shiny and healthy-looking coat.

[4] = test system: PFF-injected old mice; assay: Rotarod in PFF-injected mice; type: in vivo, mouse; details: 10 and/or 50 mg/kg oral, vs PFF only
Experimental: as §1
Rotarod. Rotarod is a behavioral test used to measure motor functionality. For three consecutive days, all the mice were habituated on the rotating rod comprising a horizontal plane rotating at a speed of 4 rotations per minute (rpm), increasing by 2 rpm every minute for 10 min or until they fell off the rod at 20 rpm. The data were collected over three consecutive days where the animals were placed on the rod at 4 rpm, and the rod increased the speed by 1 rpm every 16 sec for 10 min or until the mouse fell off. A longer latency to fall indicates an improved motor functionality.

[5] = test system: nigrostriatal neurons; assay: ROS in nigrostriatal neurons of PFF-injected mice; type: in vivo; details: PFF injection, mouse brains
[6] = test system: phosphorylated α-synuclein; assay: Western blot of phosphorylated α-synuclein in brain tissue extracts of PFF-injected mice; type: in vivo, mouse; details: both doses, vs PFF only
Experimental: as §1
Immunoblot Analyses. A total of three protein extractions were performed. In the first extraction, a gentle RIPA buffer containing the low concentration of detergent (25 mM Tris-HCL, 150 mM NaCl, 1% NP-40, 1% sodium deoxycholate and 0.1% SDS) was added with phosphatase inhibitors (100 μL for 10 mL) and 5 mM EDTA. The mixture was sonicated and centrifuged at 14,000 rpm for 10 min. The supernatant was collected for measuring the levels of phosphorylated α-syn, SENP-1 or SUMO-1 conjugated proteins for different groups. […] The primary antibodies pertaining to each protein analyzed were diluted at 1:1000 (p-Ser-129-α-synuclein, Cell signaling; SENP-1, SAB4501345, EMD) and incubated at 4° C. overnight. […] ImageJ was used to analyze specific bands on each blot and measured against the loading control (β-actin) for normalizing each band intensity.

[7] = test system: PFF-injected old mice; assay: Nesting in PFF-injected mice; type: in vivo, mouse; details: 10 and/or 50 mg/kg oral, vs PFF only
Experimental: as §1
Nesting. A 5×5 cm cotton nesting patch was placed in a clean cage housing a single animal. On the following day, pictures were taken of the condition of the nesting material utilized and analyzed in a blind manner. The ability of an animal to tear up the cotton nesting material and build a nest dictates the activity and motor coordination levels of the animal. Three dimensionally built nest was given as 5 points as the highest score, and a barely touched nesting patch was considered a low score of 1 point. The points were represented on the graph to show any improvement in nesting capabilities across the groups.

Question: With `CC1(C)CC[C@]2(C(=O)O)CC[C@]3(C)C(=CC[C@@H]4[C@@]5(C)CC[C@H](O[C@@H]6O[C@H](C(=O)O)[C@@H](O)[C@H](O[C@@H]7OC[C@@H](O)[C@H](O)[C@H]7O)[C@H]6O)C(C)(C)[C@@H]5CC[C@]43C)[C@@H]2C1` [Momordin lc] as the compound, how does the “protection against in vitro cell death” value [1] read?
Answer: protect against in vitro cell death

Question: What about the “cytotoxicity derived from PFF (LDH assay)” value [2] of the same compound?
Answer: significantly reduced the cytotoxicity

Question: What about the grooming [3] of the same compound?
Answer: improves

Question: What about the mobility on rotarod [4] of the same compound?
Answer: enhances the mobility on rotarod

Question: What about the “level of ROS in nigrostriatal neurons” value [5] of the same compound?
Answer: alleviated the level of ROS

Question: What about the “phosphorylated α-synuclein in the MB (Western blot, tissue extracts)” value ([6]; midbrain) of the same compound?
Answer: reversed

Question: What about the “phosphorylated α-synuclein in the STR (Western blot, tissue extracts)” value ([6]; striatum) of the same compound?
Answer: reversed

Question: And the nesting [7]?
Answer: improves the nesting
